One test relates to A549. Nature of the test: SRB in vitro cytotoxicity, human tumor cell line. The class given is cell-based. As to conditions: 10^-5 M, Lung: A549, read-out: growth inhibition. How it is done: (§1) Compounds 3a-g were screened by sulforhodamine-B (SRB) semi-automated assay in a battery of cell lines. […] A., et. al. (1991); Feasibility high flux anticancer screen utilizing diverse panel of human tumor cell lines in culture. J Natl Cancer Inst. 83, 757-766]. Each compound was tested in triplicate sets of experiments at 10^-4 to 10^-6 M concentrations (Table 4).
(§2) A stock solution of 2 x 10^-2M was prepared in DMSO. The stock solutions were serially diluted to obtain working test solutions with complete growth medium (RPMI-1640 medium with 2mM glutamine, 100µg/ml streptomycin, pH 7.4, sterilized by filtration and supplemented with 10% fetal bovine serum and 100 units/ml penicillin before use) containing 50 µg/ml of gentamycin to obtain working test solutions. The working test solutions were not filtered/ sterilized but microbial contamination was controlled by addition of gentamycin in complete growth medium used for dilution of stock solutions to prepare working test solutions.
(§3) In vitro cytotoxicity against human cancer cell lines was determined^2 [Monk. A., et. al. (1991); Feasibility high flux anticancer screen utilizing diverse panel of human tumor cell lines in culture. J Natl Cancer Inst. 83, 757-766] using 96-well tissue culture plates. The cells were grown in tissue culture flasks in complete growth medium at 37°C in an atmosphere of 5% CO2 and 95% relative humidity in a carbon dioxide incubator. The cell suspension of required cell density (1-2 lakhs/ml) depending on the mass doubling time of cell lines was prepared in complete growth medium for determination of cytotoxicity. The aliquots of 100 µl of cell suspension were added to each well on a 96-well tissue culture plate. The blank wells contained complete medium in place of cell suspension. Simultaneously, control experiments with positive controls containing known anticancer agents were carried out. Cells were incubated for 24 hr.
(§4) The test materials (100 µl in each well) were added after 24-hours to the wells containing cell suspension and blank wells. The cells were allowed to grow in presence of test material by further incubating the plates for 48 hours. At the end of incubation period the cell growth was stopped by gently layering trichloroacetic acid (50% TCA, 50µl/well) on top of the medium in all the wells. The plates were incubated at 4°C for 1 hr. The plates were washed five times with distilled water to remove TCA, growth medium, low molecular weight metabolites, serum proteins etc. and air-dried.
(§5) The cell growth was measured^3 [Skehan, P, Storeng, R Scudiero, D, Monks, A, Mcmahon, J, Vistica, D, Warren, J.T., Bokesch, H., Kenney, S., Boyd, M.R. (1990). New colorimetric cytotoxicity assay for anti-cancer drug screening. J Natl Cancer Inst. 82: 1107-12] by staining with Sulphorhodamine B. Sulphorhodamine B (SRB, 0.4% in 1% acetic acid, 100 µl/well) was added to each well and plates were allowed to stand at room temperature for 30 minutes. The plates were washed with 1% acetic acid four times and then dried. Tris-HCl buffer (0.01 M, pH 10.5, 100 µl/well) was added to each well to solublise the dye. The plates were shaken gently for 10 minutes on a shaker and the optical density was recorded on ELISA reader at 540 nm. The cell growth was determined by subtracting mean OD value of respective blank from the mean OD value of experimental set. Percent growth in presence of test material was calculated considering the growth in absence of any test material as 100% and in turn percent growth inhibition in presence of test material was calculated. All the experiments were carried out in quadruplicate.

The test system of the next test is 502713. Kind of test: SRB in vitro cytotoxicity, human tumor cell line. The settings on record: 10^-5 M, Colon: 502713, read-out: growth inhibition. The class given is cell-based. Here is the method: as §1, §2, §3, §4, §5
The subject of the next test is PC-3. Kind of test: SRB in vitro cytotoxicity, human tumor cell line. In kind it is cell-based. As to conditions: 10^-5 M, Prostate: PC-3, read-out: growth inhibition. How it is done: as §1, §2, §3, §4, §5
The next test relates to IMR-32. Nature of the test: SRB in vitro cytotoxicity, human tumor cell line. In kind it is cell-based. As to conditions: 10^-5 M, Neuroblastoma: IMR-32, read-out: growth inhibition. Here is the method:
as §1, §2, §3, §4, §5

The next test relates to HCT-15. Kind of test: SRB in vitro cytotoxicity, human tumor cell line. The class given is cell-based. The settings on record: 10^-5 M, Colon: HCT-15, read-out: growth inhibition. How it is done: as §1, §2, §3, §4, §5
Another test relates to SK-N-SH. Kind of test: SRB in vitro cytotoxicity, human tumor cell line. In kind it is cell-based. As to conditions: 10^-5 M, Neuroblastoma: SK-N-SH, read-out: growth inhibition. How it is done:
as §1, §2, §3, §4, §5

A further test deals with HT-29. Nature of the test: SRB in vitro cytotoxicity, human tumor cell line. As to conditions: 10^-5 M, Colon: HT-29, read-out: growth inhibition. The class given is cell-based. How it is done:
as §1, §2, §3, §4, §5

For the next test, the system named is MCF-7. Nature of the test: SRB in vitro cytotoxicity, human tumor cell line. The class given is cell-based. As to conditions: MCF7, 10^-5 M, Breast: MCF-7, read-out: growth inhibition. Here is the method: as §1, §2, §3, §4, §5
The next test deals with SKOV-3. Kind of test: SRB in vitro cytotoxicity, human tumor cell line. The class given is cell-based. The settings on record: SK-OV-3, 10^-5 M, Ovarian: SKOV-3, read-out: growth inhibition. Here is the method:
as §1, §2, §3, §4, §5

The next test deals with OVCAR-5. Nature of the test: SRB in vitro cytotoxicity, human tumor cell line. The class given is cell-based. As to conditions: 10^-5 M, Ovary: OVCAR-5, read-out: growth inhibition. How it is done:
as §1, §2, §3, §4, §5

The next test deals with COLO-205. Nature of the test: SRB in vitro cytotoxicity, human tumor cell line. As to conditions: 10^-5 M, Colon: COLO-205, read-out: growth inhibition. The class given is cell-based. How it is done: as §1, §2, §3, §4, §5
A further test concerns DU-145. Nature of the test: SRB in vitro cytotoxicity, human tumor cell line. In kind it is cell-based. The settings on record: 10^-5 M, Prostate: DU-145, read-out: growth inhibition. How it is done:
as §1, §2, §3, §4, §5

The subject of the next test is SW-620. Nature of the test: SRB in vitro cytotoxicity, human tumor cell line. The settings on record: 10^-5 M, Colon: SW-620, read-out: growth inhibition. In kind it is cell-based. How it is done:
as §1, §2, §3, §4, §5

A further test concerns Hep-2. Kind of test: SRB in vitro cytotoxicity, human tumor cell line. The settings on record: 10^-5 M, Liver: Hep-2, read-out: growth inhibition. The class given is cell-based. Here is the method:
as §1, §2, §3, §4, §5

The subject of a further test is caspase-3. Kind of test: Caspase-3 colorimetric assay in MOLT-4 cells. The settings on record: 5 µg/ml, 12 hrs. In kind it is cell-based, Human. How it is done:
Caspase 3 activity was measured by using caspase-3 colorimetric Assay kit (R&D Systems USA). […] Cell lysates were mixed with 10µL of dithiothreitol (DTT) and 50µL reaction buffer (2X) containing 5 µL DEVD-pNA, a caspase-3 substrate, and incubated upto 24 hr at 37°C. Additional controls were included in this assay containing no cell lysate without substrate Enzyme-catalyzed release of pNA was monitored using a microplate reader at 405 nm (Fig. 2). Likewise, Caspase 6 activity was also measured using caspase-6 colorimetric Assay kit (R&D Systems USA). However, the enzyme and enzyme substrate (VEID-pNA) were different (Fig. 3). Treatment of the cells with Compound 3f induced caspase-3/6 activities. […] (Fig 2).

A further test deals with HL-60 human leukemia. Kind of test: MTT in vitro cytotoxicity. As to conditions: Homo sapiens, HL-60, 96 h, read-out: IC50 value Leukemia HL-60.

Drawing on patent EP2118065B1, “Substituted 1H-benz[de]isoquinoline-1,3-diones” (priority 2007, dated 2008), this text covers inhibition, Caspase-3 activity and IC50 for one compound.

pIC50: −log10 of the molar value.

As to `O=C1c2cccc3c([N+](=O)[O-])ccc(c23)C(=O)N1CCCCl` [Compound 3f, 6-Nitro-2-[3-(Chloropropyl)]-1H-benz[de]isoquinoline-1,3-dione], the inhibition at 10 µM in the test with A549 was not above 50%; in the test with 502713, more than 50%; with PC-3, more than 50%; in the test with IMR-32, more than 50%; in the test with HCT-15 it was more than 50%; with SK-N-SH, more than 50%. The inhibition at 10 µM with HT-29 was more than 50%; in the test on MCF-7 it was more than 50%; with SKOV-3, not above 50%; in the test on OVCAR-5, more than 50%; in the test on COLO-205, more than 50%; with DU-145, more than 50%. Also, the inhibition at 10 µM in the test with SW-620 and in the test with Hep-2 was more than 50% throughout. Moreover, the Caspase-3 activity result in the test on caspase-3 is reported as “maximum at 5 µg/ml at 12 hrs”. Moreover, in the test on HL-60 human leukemia, the negative logarithm of the IC50 (pIC50) is 6.52.
